Results on 50 compounds are retold here after patent publication US11267800B2, “Cyclohexyl acid triazole azines as LPA antagonists” (BRISTOL-MYERS SQUIBB COMPANY, priority 2017, dated 2022).

SMILES strings stand for the structures. Counter-ions that a name gives are not always drawn.

The target of this experiment is T1, human LPA1 (Homo sapiens, UniProt Q92633).
T1 construct: expressed in transfected cells; host or cells: Chinese hamster ovary (CHO) cells
T1 sequence (Q92633 whole entry): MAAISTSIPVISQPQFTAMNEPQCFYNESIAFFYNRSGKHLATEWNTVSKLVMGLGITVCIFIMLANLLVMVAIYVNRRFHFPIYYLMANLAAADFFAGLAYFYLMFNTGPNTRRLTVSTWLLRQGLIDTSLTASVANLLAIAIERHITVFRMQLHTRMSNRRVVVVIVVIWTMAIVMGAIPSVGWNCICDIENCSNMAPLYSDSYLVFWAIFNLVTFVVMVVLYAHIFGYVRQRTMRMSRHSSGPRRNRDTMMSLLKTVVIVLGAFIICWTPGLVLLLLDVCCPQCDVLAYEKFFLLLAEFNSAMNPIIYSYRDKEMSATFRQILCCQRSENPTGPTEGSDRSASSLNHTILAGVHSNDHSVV
Nature of the experiment: LPA1 functional antagonist assay (calcium flux). Format: cell-based. Conditions: CHO cells overexpressing human LPA1; inhibition of calcium flux induced by 10 nM LPA; read-out: hLPA1 IC50. The method in brief: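 IC50 values come from 4-parameter logistic fits and mark 50% block of the calcium flux evoked by 10 nM LPA. Human LPA1-overexpressing CHO cells were calcium-dye loaded at 37 °C, then given test compound (0.08 nM–5 μM, 0.5% DMSO, HEPES-buffered HBSS with 0.1% fatty-acid-free BSA) for 20 min at room temperature before agonist.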
For `Cc1nc(-c2nnn(C)c2CNc2nc(C#N)cc(C(C)(C)C)n2)ccc1O[C@H]1CCC[C@H](C(=O)O)C1` [Example 166], the IC50 – broadly, the concentration that inhibits the measured activity by half – was 0.18 µM.
For the compound `Cc1nc(-c2nnn(C)c2COc2nccc(-c3cnccn3)n2)ccc1O[C@H]1CCC[C@H](C(=O)O)C1` [Example 316], the IC50 was 0.263 µM.
Take `Cc1nc(-c2nnn(C)c2CNc2nnccc2OC2CCC2)ccc1O[C@H]1CCC[C@H](C(=O)O)C1` [Example 191, (1S,3S)-3-((6-(5-(((4-Cyclobutoxypyridazin-3-yl)amino)methyl)-1-methyl-1H-1,2,3-triazol-4-yl)-2-methylpyridin-3-yl)oxy)cyclohexane-1-carboxylic acid, bis TFA Salt]: the IC50 is 0.103 µM.
The value for `CC(C)c1ccnc(NCc2c(-c3ccc(O[C@H]4CCC[C@H](C(=O)O)C4)c(C#N)n3)nnn2C)n1` [Example 406] was 0.018 µM; that for `CCCCc1ncnc(NCc2c(-c3ccc(O[C@H]4CCC[C@H](C(=O)O)C4)c(C)n3)nnn2C)n1` [Example 199, (1S,3S)-3-((6-(5-(((4-Butyl-1,3,5-triazin-2-yl)amino)methyl)-1-methyl-1H-1,2,3-triazol-4-yl)-2-methyl-pyridin-3-yl)oxy)cyclohexane-1-carboxylic acid] was 0.029 µM; that for `CCSc1ccnc(NCc2c(-c3ccc(O[C@H]4CCC[C@H](C(=O)O)C4)c(C)n3)nnn2C)n1` [Example 88] was 0.016 µM.
Turning to `CCc1ncnc(NCc2c(-c3ccc(O[C@H]4CCC[C@H](C(=O)O)C4)cn3)nnn2C)n1` [Example 224, (1S,3S)-3-((6-(5-(((4-ethyl-1,3,5-triazin-2-yl)amino)methyl)-1-methyl-1H-1,2,3-triazol-4-yl)pyridin-3-yl)oxy) cyclohexane-1-carboxylic acid], the IC50 was 0.813 µM.
Take `CSc1ccnc(NCc2c(-c3ccc(O[C@H]4CCC[C@H](C(=O)O)C4)c(C)n3)nnn2C)n1` [Example 97]: the IC50 came to 0.187 µM.
Regarding `Cc1nc(-c2nnn(C)c2CNc2ncc(Cl)c(C(C)C)n2)ccc1O[C@H]1CCC[C@H](C(=O)O)C1` [Example 158], the IC50 turned out to be 0.027 µM.
On to `Cc1nc(-c2nnn(C)c2CNc2nccc(C(C)(C)CF)n2)ccc1O[C@H]1CCC[C@H](C(=O)O)C1` [Example 127], for which the half-inhibitory concentration (IC50) worked out at 0.022 µM.
Regarding `Cc1nc(-c2nnn(C)c2CNc2cccc(C(C)C)n2)ccc1O[C@H]1CCC[C@H](C(=O)O)C1` [Example 266], the IC50 came to 0.087 µM.
On to `Cc1nc(-c2nnn(C)c2CNc2nccc(C(C)(C)C)n2)cnc1O[C@H]1CCC[C@H](C(=O)O)C1` [Example 136], for which the IC50 was determined as 0.086 µM.
For `Cc1nc(-c2nnn(C)c2CNc2ncc(F)c(NCC3CC3)n2)ccc1O[C@H]1CCC[C@H](C(=O)O)C1` [Example 47], the IC50 came to 0.069 µM.
On to `Cc1nc(-c2nnn(C)c2CNc2nccc(Oc3ccccc3F)n2)ccc1O[C@H]1CCC[C@H](C(=O)O)C1` [Example 115], for which the IC50 worked out at 0.025 µM.
Consider `Cc1nc(-c2nnn(C)c2CNc2nccc(OCC3(C)CC3)n2)ccc1O[C@H]1CCC[C@H](C(=O)O)C1` [Example 335], for which the IC50 was 0.018 µM.
Turning to `Cc1nc(-c2nnn(C)c2CNc2nccc(Oc3ccc(F)c(F)c3)n2)ccc1O[C@H]1CCC[C@H](C(=O)O)C1` [Example 101], the IC50 stood at 0.028 µM.
As to `Cc1nc(-c2nnn(C)c2Cc2nccc(-c3ccccc3)n2)ccc1O[C@H]1CCC[C@H](C(=O)O)C1` [Example 378], the concentration for half-maximal inhibition (IC50) was determined as 0.0249 µM.
Regarding `Cc1nc(-c2nnn(C)c2Cc2cc(-c3ccccc3)ccn2)ccc1O[C@H]1CCC[C@H](C(=O)O)C1` [Example 377], the IC50 came to 0.0072 µM.
As for `Cc1nc(-c2nnn(C)c2COc2cc(C(F)F)ccn2)ccc1O[C@H]1CCC[C@H](C(=O)O)C1` [Example 315], the IC50 came out at 0.022 µM.
The value for `Cn1nnc(-c2ccc(O[C@H]3CCC[C@H](C(=O)O)C3)cn2)c1COc1nccc(C(F)(F)F)n1` [Example 404] was 0.173 µM; that for `CCOc1cccc(OCc2c(-c3ccc(O[C@H]4CCC[C@H](C(=O)O)C4)c(C)n3)nnn2C)c1` [Example 268] was 0.051 µM.
Regarding `Cc1nc(-c2nnn(C)c2COc2cc(-n3ccnn3)ncn2)ccc1O[C@H]1CCC[C@H](C(=O)O)C1` [Example 405], the IC50 is 0.129 µM.
Take `Cc1nc(-c2nnn(C)c2COc2ncnc(OC3CC3)c2C)ccc1O[C@H]1CCC[C@H](C(=O)O)C1` [Example 292]: the IC50 is 0.39 µM.
Under `Cc1nc(-c2nnn(C)c2CNc2nccc(-n3ccccc3=O)n2)ccc1O[C@H]1CCC[C@H](C(=O)O)C1` [Example 111] stands 0.763 µM.
The value for `Cc1nc(-c2nnn(C)c2CNc2nccc(OCC(F)(F)F)n2)ccc1O[C@H]1CCC[C@H](C(=O)O)C1` [Example 90] was 0.054 µM.
As to `CCCOCc1ccnc(NCc2c(-c3ccc(O[C@H]4CCC[C@H](C(=O)O)C4)c(C)n3)nnn2C)n1` [Example 324], the IC50 turned out to be 0.042 µM.
In the case of `Cc1nc(-c2nnn(C)c2CNc2cc(C(F)(F)F)ncn2)ccc1O[C@H]1CCC[C@H](C(=O)O)C1` [Example 312], the IC50 is 0.139 µM.
Under `Cc1nc(-c2nnn(C)c2CNc2cc(-c3ccccc3)ccn2)ccc1O[C@H]1CCC[C@H](C(=O)O)C1` (stereo in doubt) [Example 2, (1S,3S)-3-((2-Methyl-6-(1-methyl-5-(((4-phenylpyridin-2-yl)amino)methyl)-1H-1,2,3-triazol-4-yl)pyridin-3-yl)oxy)cyclohexanecarboxylic acid] stands 0.032 µM; under `Cc1nc(-c2nnn(C)c2CNc2nccc(Oc3ccccc3)n2)cnc1O[C@H]1CCC[C@H](C(=O)O)C1` [Example 130], 0.105 µM.
Consider `CCc1ncnc(OCc2c(-c3ccc(O[C@H]4CCC[C@H](C(=O)O)C4)c(C)n3)nnn2C)c1C` [Example 293], for which the IC50 is 0.078 µM.
With `CCc1nc(-c2nnn(C)c2CNc2nccc(C(C)C)n2)ccc1O[C@H]1CCC[C@H](C(=O)O)C1` [Example 389], the IC50 amounted to 0.0093 µM.
Take `Cc1nc(-c2nnn(C)c2CNc2ccnc(OCC(C)(C)F)n2)ccc1O[C@H]1CCC[C@H](C(=O)O)C1` [Example 55]: the IC50 worked out at 0.189 µM.
For the compound `Cc1nc(-c2nnn(C)c2CNc2nccc(OCC(C)(C)C)n2)ccc1O[C@H]1CCC[C@H](C(=O)O)C1` [Example 65], the IC50 is 0.036 µM.
On to `[2H]C([2H])([2H])C([2H])([2H])Oc1nccc(NCc2c(-c3ccc(O[C@H]4CCC[C@H](C(=O)O)C4)c(C)n3)nnn2C)n1` [Example 258], for which the IC50 stood at 1.88 µM.
Under `Cc1nc(-c2nnn(C)c2CNc2ccnc(OCC(C)(C)C)n2)ccc1O[C@H]1CCC[C@H](C(=O)O)C1` [Example 61] stands 0.233 µM; under `CCCOc1cccc(Nc2c(-c3ccc(O[C@H]4CCC[C@H](C(=O)O)C4)c(C)n3)nnn2C)n1` [Example 242, (1S,3S)-3-((2-methyl-6-(1-methyl-5-((6-propoxypyridin-2-yl)amino)-1H-1,2,3-triazol-4-yl)pyridin-3-yl)oxy) cyclohexane-1-carboxylic acid], 0.011 µM.
Under `Cc1nc(-c2nnn(C)c2CNc2nccc(C(F)F)n2)ccc1O[C@H]1CCC[C@H](C(=O)O)C1` [Example 366] stands 0.135 µM; under `Cc1nc(-c2nnn(C)c2CNc2nc(C(N)=O)cc(C(C)(C)C)n2)ccc1O[C@H]1CCC[C@H](C(=O)O)C1` [Example 162], 2.37 µM; under `COCCCOc1ccnc(NCc2c(-c3ccc(O[C@H]4CCC[C@H](C(=O)O)C4)c(C)n3)nnn2C)n1` [Example 89], 0.077 µM.
With `COc1nc(NCc2c(-c3ccc(O[C@H]4CCC[C@H](C(=O)O)C4)c(C)n3)nnn2C)nc(-c2ccccc2)n1` [Example 4, (1S,3S)-3-((6-(5-(((4-Methoxy-6-phenyl-1,3,5-triazin-2-yl)amino)methyl)-1-methyl-1H-1,2,3-triazol-4-yl)-2-methylpyridin-3-yl)oxy)cyclohexanecarboxylic acid], the IC50 amounted to 0.153 µM.
In the case of `CCc1ncnc(NCc2c(-c3ccc(O[C@H]4CCC[C@H](C(=O)O)C4)c(C)n3)nnn2C)n1` [Example 194, (1S,3S)-3-((6-(5-(((4-Ethyl-1,3,5-triazin-2-yl)amino)methyl)-1-methyl-1H-1,2,3-triazol-4-yl)-2-methyl-pyridin-3-yl)oxy)cyclohexane-1-carboxylic acid], the IC50 turned out to be 0.063 µM.
The value for `Cc1nc(-c2nnn(C)c2COc2ccnc(N3CCC3)n2)ccc1O[C@H]1CCC[C@H](C(=O)O)C1` [Example 350] was 0.565 µM; that for `Cc1nc(-c2nnn(C)c2COc2nccc(C(C)C)n2)ccc1O[C@H]1CCC[C@H](C(=O)O)C1` [Example 345] was 0.0095 µM.
As for `CCCCNc1nc(NCc2c(-c3ccc(O[C@H]4CCC[C@H](C(=O)O)C4)c(C)n3)nnn2C)ncc1F` [Example 49], the IC50 was found to be 0.069 µM.
`Cc1nc(-c2nnn(C)c2CNc2nc(C#N)cc(C3CCC3)n2)ccc1O[C@H]1CCC[C@H](C(=O)O)C1` [Example 164]: the IC50 worked out at 0.042 µM.
`Cc1nc(-c2nnn(C)c2COc2ccnc(C(C)C)n2)ccc1O[C@H]1CCC[C@H](C(=O)O)C1` [Example 287]: the IC50 amounted to 0.041 µM.
With `CCOc1ccnc(Nc2c(-c3ccc(O[C@H]4CCC[C@H](C(=O)O)C4)c(C)n3)nnn2C)n1` [Example 229, (1S,3S)-3-((6-(5-((4-ethoxypyrimidin-2-yl)amino)-1-methyl-1H-1,2,3-triazol-4-yl)-2-methylpyridin-3-yl)oxy)cyclohexane-1-carboxylic acid], the IC50 came to 0.165 µM.
For `CCOc1cc(C)nc(NCc2c(-c3ccc(O[C@H]4CCC[C@H](C(=O)O)C4)c(C)n3)nnn2C)n1` [Example 174], the IC50 is 0.056 µM.
Regarding `Cc1nc(-c2nnn(C)c2CNc2nccc(OC3CCC3)n2)ccc1O[C@H]1CCC[C@H](C(=O)O)C1` [Example 96], the IC50 was found to be 0.016 µM.
Under `Cn1nnc(-c2ccc(O[C@H]3CCC[C@H](C(=O)O)C3)cn2)c1COc1cc(C(F)F)ncn1` [Example 353] stands 0.081 µM.
